Experiment in all cases: Bliss excess, mean over the matrix (fraction); higher = more synergy
Assay [1] concerns FADU (Head and Neck Carcinoma). In a few lines:
(§1)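 After 24 hours at 37°C and 5% CO2 in 1536-well plates, cells in DMEM/F12 or RPMI plus 10% FBS received two-drug dose matrices for 72 hours. Viability came from CellTiter-Glo 2.0 luminescence and was scaled as inhibition, anchored at 0 by vehicle wells and at 1 by blank wells. Combination Emax is taken as the second-highest inhibition in the matrix, and Bliss excess as the observed combination effect less EA + EB − EA·EB, with EA and EB the single-agent effects.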

Assay [2] relates to HSC-39 (Gastric Carcinoma). In a few lines:
as §1

The test system of assay [3] is L-1236 (Hodgkin's Lymphoma). In a few lines: as §1
Assay [4] deals with LXF-289 (Lung Adenocarcinoma). In a few lines:
as §1

The subject of assay [5] is NCI-H446 (Small Cell Lung Carcinoma). In a few lines: as §1
In assay [6] the test system is OPM-2 (Plasma Cell Myeloma). In outline:
as §1

Consider `Cc1c2c(nn1C)CSCc1cc(n(C)n1)CSc1cc(c3ccccc3c1)OCCCc1c(C(=O)O)n(C)c3c-2c(Cl)ccc13` [AZD5991] + C=CCn1c(=O)c2cnc(Nc3ccc(N4CCN(C)CC4)cc3)nc2n1-c1cccc(C(C)(C)O)n1 [AZD1775] (first compound max 1 µM, partner max 1 µM), for which the Bliss excess in assay [1] is -0.0016; in assay [2], 0.0058; in assay [3] it was -0.0319; in assay [4], -0.029; in assay [5] it was -0.0162; in assay [6], -0.0119.
Turning to `Cc1c2c(nn1C)CSCc1cc(n(C)n1)CSc1cc(c3ccccc3c1)OCCCc1c(C(=O)O)n(C)c3c-2c(Cl)ccc13` [AZD5991] + CC1(C)CCC(CN2CCN(c3ccc(C(=O)NS(=O)(=O)c4ccc(NCC5CCOCC5)c([N+](=O)[O-])c4)c(Oc4cnc5[nH]ccc5c4)c3)CC2)=C(c2ccc(Cl)cc2)C1 [Venetoclax] (first compound max 1 µM, 7x7, partner max 1 µM), the Bliss excess in assay [1] is -0.0231; in assay [2], 0.0266; in assay [3], 0.0632; in assay [4], 0.0108; in assay [5], 0.117; in assay [6] it was 0.0217.
In the case of `Cc1c2c(nn1C)CSCc1cc(n(C)n1)CSc1cc(c3ccccc3c1)OCCCc1c(C(=O)O)n(C)c3c-2c(Cl)ccc13` [AZD5991] + CN(C)CCCOc1ccc(-c2ccc3ncc4c(c3c2)n(C2CCOCC2)c(=O)n4C)cn1 [AZD0156] (first compound max 1 µM, 7x7, partner max 1 µM), the Bliss excess in assay [1] is 0.0409; in assay [2], -0.0201; in assay [3], 0.0295; in assay [4], 0.0472; in assay [5], 0.052; in assay [6], -0.0241.
Consider `Cc1c2c(nn1C)CSCc1cc(n(C)n1)CSc1cc(c3ccccc3c1)OCCCc1c(C(=O)O)n(C)c3c-2c(Cl)ccc13` [AZD5991] + C[C@@H]1COCCN1C2=NC(=NC(=C2)C3(CC3)[S@](=N)(=O)C)C4=C5C=CNC5=NC=C4 [AZD6738] (first compound max 1 µM, 7x7, partner max 10 µM), for which the Bliss excess in assay [1] was 0.0284; in assay [2], -0.0026; in assay [3], 0.104; in assay [4] it was 0.0667; in assay [5], 0.0708; in assay [6], 0.0291.
Take `Cc1c2c(nn1C)CSCc1cc(n(C)n1)CSc1cc(c3ccccc3c1)OCCCc1c(C(=O)O)n(C)c3c-2c(Cl)ccc13` [AZD5991] + C[C@@H](Nc1cc(F)cc(F)c1)c1cc(C(=O)N(C)C)cc2c(=O)cc(N3CCOCC3)oc12 [AZD8186] (first compound max 1 µM, 7x7, partner max 3 µM): the Bliss excess is 0.0315 in assay [1]; -0.0069 in assay [2]; 0.0233 in assay [3]; -0.0127 in assay [4]; 0.183 in assay [5]; -0.0104 in assay [6].
For the compound `Cc1c2c(nn1C)CSCc1cc(n(C)n1)CSc1cc(c3ccccc3c1)OCCCc1c(C(=O)O)n(C)c3c-2c(Cl)ccc13` [AZD5991] + Cc1cc2ncnn2cc1Nc1ncc2c(n1)n(C1CCOCC1)c(=O)n2C [AZD7648] (first compound max 1 µM, 7x7, partner max 10 µM), the Bliss excess in assay [1] was -0.0003; in assay [2], 0.0095; in assay [3], 0.0299; in assay [4] it was -0.0889; in assay [5], 0.0148; in assay [6], -0.0357.
Regarding `Cc1c2c(nn1C)CSCc1cc(n(C)n1)CSc1cc(c3ccccc3c1)OCCCc1c(C(=O)O)n(C)c3c-2c(Cl)ccc13` [AZD5991] + Cn1cnc2c(F)c(Nc3ccc(Br)cc3Cl)c(C(=O)NOCCO)cc21 [Selumetinib] (first compound max 1 µM, 7x7, partner max 3 µM), the Bliss excess in assay [1] worked out at 0.0722; in assay [2], 0.0118; in assay [3] it was 0; in assay [4], 0.0414; in assay [5], 0.0241; in assay [6] it was 0.0231.
As for `C[C@@H]1COCCN1c1cc(C2([S@](C)(=N)=O)CC2)nc(-c2ccnc3[nH]ccc23)n1` [AZD6738] + O=C(c1cc(Cc2n[nH]c(=O)c3ccccc23)ccc1F)N1CCN(C(=O)C2CC2)CC1 [Olaparib] (first compound max 10 µM, 7x7, partner max 10 µM), the Bliss excess in assay [1] is 0.0098; in assay [2], 0.025; in assay [3] it was -0.0033; in assay [4] it was -0.0371; in assay [5] it was 0.0602; in assay [6], -0.0339.
As to `Cc1cc2ncnn2cc1Nc1ncc2c(n1)n(C1CCOCC1)c(=O)n2C` [AZD7648] + C=CCn1c(=O)c2cnc(Nc3ccc(N4CCN(C)CC4)cc3)nc2n1-c1cccc(C(C)(C)O)n1 [AZD1775] (first compound max 10 µM, partner max 1 µM), the Bliss excess in assay [1] is -0.0112; in assay [2], -0.0357; in assay [3] it was -0.0686; in assay [4], -0.0396; in assay [5], -0.0228; in assay [6], -0.0006.
`Cc1cc2ncnn2cc1Nc1ncc2c(n1)n(C1CCOCC1)c(=O)n2C` [AZD7648] + CCN(CCO)CCCOc1ccc2c(Nc3cc(CC(=O)Nc4cccc(F)c4)[nH]n3)ncnc2c1 [AZD2811] (first compound max 10 µM, 7x7, partner max 1 µM): the Bliss excess was 0.0177 in assay [1]; -0.0371 in assay [2]; -0.0089 in assay [3]; 0.0397 in assay [4]; -0.0157 in assay [5]; 0.0791 in assay [6].
As for `Cc1cc2ncnn2cc1Nc1ncc2c(n1)n(C1CCOCC1)c(=O)n2C` [AZD7648] + CN(C)CCCOc1ccc(-c2ccc3ncc4c(c3c2)n(C2CCOCC2)c(=O)n4C)cn1 [AZD0156] (first compound max 10 µM, 7x7, partner max 1 µM), the Bliss excess is -0.0048 in assay [1]; -0.036 in assay [2]; 0.0025 in assay [3]; 0.034 in assay [4]; 0.0418 in assay [5]; -0.0303 in assay [6].
In the case of `Cc1cc2ncnn2cc1Nc1ncc2c(n1)n(C1CCOCC1)c(=O)n2C` [AZD7648] + C[C@@H]1COCCN1C2=NC(=NC(=C2)C3(CC3)[S@](=N)(=O)C)C4=C5C=CNC5=NC=C4 [AZD6738] (first compound max 10 µM, 7x7, partner max 10 µM), the Bliss excess in assay [1] was -0.0093; in assay [2], 0.0166; in assay [3] it was 0.0434; in assay [4], 0.0315; in assay [5] it was 0.0335; in assay [6], 0.0254.

The record behind these values is the supplement of paper PMC11061612.
